Counter-ions that a name gives are not always drawn.
Columns and labels:
5-HT1A = biological target: T1, 5-HT1A (Rattus norvegicus, UniProt P19327); assay: 5-HT1A receptor binding (Peroutka); settings: rat frontal cortex (title of cited method); mean; read-out: IC50 5-HT1A mean
T1 construct: from tissue; host or cells: rat frontal cortex
T1 sequence (P19327 1-422): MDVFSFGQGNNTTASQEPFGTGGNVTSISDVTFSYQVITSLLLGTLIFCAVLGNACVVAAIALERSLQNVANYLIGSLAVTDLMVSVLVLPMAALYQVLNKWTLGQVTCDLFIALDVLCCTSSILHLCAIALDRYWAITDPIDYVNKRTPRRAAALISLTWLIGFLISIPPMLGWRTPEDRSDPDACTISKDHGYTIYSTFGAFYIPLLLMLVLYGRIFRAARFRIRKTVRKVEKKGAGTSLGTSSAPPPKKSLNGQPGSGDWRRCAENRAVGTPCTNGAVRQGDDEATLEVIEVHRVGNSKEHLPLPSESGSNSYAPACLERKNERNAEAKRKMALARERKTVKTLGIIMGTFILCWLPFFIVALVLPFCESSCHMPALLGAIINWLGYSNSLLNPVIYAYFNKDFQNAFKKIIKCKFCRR
Protocol: (§1) The IC50 values of the various products which form part of this invention for the other receptors were measured according to the techniques described in the following references:
(§2) Peroutka S. J. Pharmacological differentiation and characterization of 5-HT1A, 5-HT1B and 5-HT1C binding sites in rat frontal cortex. J. Neurochem., 45, 529-540, 1986.

5-HT1C = biological target: T2, 5-HT1C (Sus scrofa, UniProt K7GSR7); assay: 5-HT1C receptor binding (Pazos et al.); design: species or system porcine
T2 construct: serotonergic ligands to the porcine choroid plexus; from tissue; host or cells: porcine choroid plexus
T2 sequence (K7GSR7 1-457): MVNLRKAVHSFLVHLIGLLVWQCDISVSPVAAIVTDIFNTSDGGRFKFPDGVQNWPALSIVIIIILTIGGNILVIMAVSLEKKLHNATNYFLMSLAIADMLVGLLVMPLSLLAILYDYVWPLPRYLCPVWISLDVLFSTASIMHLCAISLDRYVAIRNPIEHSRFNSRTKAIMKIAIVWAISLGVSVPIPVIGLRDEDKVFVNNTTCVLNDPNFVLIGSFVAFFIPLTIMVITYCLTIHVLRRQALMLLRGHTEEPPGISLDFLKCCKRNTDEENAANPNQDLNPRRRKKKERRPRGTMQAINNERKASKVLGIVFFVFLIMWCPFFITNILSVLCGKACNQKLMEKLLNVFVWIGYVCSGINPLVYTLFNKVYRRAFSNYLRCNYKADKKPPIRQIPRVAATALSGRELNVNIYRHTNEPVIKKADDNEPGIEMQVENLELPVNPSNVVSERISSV
Protocol: as §1
Pazos A., Hoyer D. and Palacios J. M. The binding sites of serotonergic ligands to the porcine choroid plexus: characterization of a new type of serotonin recognition site. Eur. J. Pharmacol., 106, 539-546, 1985.

5-HT1D = assay: Affinity for 5-HT1D receptors (3H-5-HT binding, sheep caudate nuclei membranes); settings: Ratio of the IC50 values for the 5HT1A and 5HT1D receptors
Protocol: This study is carried out according to the technique described by Herrick-Davis and Titeler (J. Neurochem. 50, 1624-1631, 1988).
Preparation of the membranes:
Sheep brains are removed at the local abattoir and transported in ice. The caudate nuclei are removed, weighed and homogenized with a Polytron for 20 sec. (speed 6-7) in 20 volumes of Tris-HCl 50 mM, pH 7.7. The homogenate is centrifuged for 10 min at 48,000 g with an L5 50E centrifuge (Beckman).
The pellet, taken up in 20 volumes of Tris-HCl 50 mM, pH 7.7, is placed in a water bath at 37° C. for 10 min and then recentrifuged for 10 min at 48,000 g. The pellet then obtained is immediately frozen in fractions containing 0.5 g of tissue.
The pellet is defrosted and homogenized with a Dounce in 80 volumes of Tris-HCl, 50 mM pH 7.7 containing 4 mM CaCl2, 10μM of pargyline and 0.1% of ascorbic acid.
Binding is carried out at 25° C. by incubating for 30 min:
0.1 ml of buffer or 10 μM, as final concentration, of sumatriptan, in order to obtain the non-specific binding, or the product which forms part of this invention at various concentrations (between 10^-10 and 10^-6 M).
0.8 ml of membrane suspension
0.1 ml of ^3 H-5-HT (15 to 30 Ci/mM, New England Nuclear France)
The incubation is brought to an end by rapid filtration through GF/B filters and rinsing with 3 times 3 ml of ice-cold buffer, using a harvester manufactured by Brandel which makes it possible to filter 48 samples. The filters are introduced into vials containing 4 ml of emulsifier-safe liquid scintillant (Packard) and the radioactivity measured with a Tri-carb 4640 counter (Packard).
The IC50 (concentration which inhibits the specific affinity by 50%) is determined graphically.

5-HT1B = biological target: T3, 5-HT1B (Rattus norvegicus, UniProt P28564); assay: 5-HT1B receptor binding (Peroutka); settings: rat frontal cortex (title of cited method); mean; read-out: IC50 5-HT1B mean
T3 construct: from tissue; host or cells: rat frontal cortex
T3 sequence (P28564 whole entry): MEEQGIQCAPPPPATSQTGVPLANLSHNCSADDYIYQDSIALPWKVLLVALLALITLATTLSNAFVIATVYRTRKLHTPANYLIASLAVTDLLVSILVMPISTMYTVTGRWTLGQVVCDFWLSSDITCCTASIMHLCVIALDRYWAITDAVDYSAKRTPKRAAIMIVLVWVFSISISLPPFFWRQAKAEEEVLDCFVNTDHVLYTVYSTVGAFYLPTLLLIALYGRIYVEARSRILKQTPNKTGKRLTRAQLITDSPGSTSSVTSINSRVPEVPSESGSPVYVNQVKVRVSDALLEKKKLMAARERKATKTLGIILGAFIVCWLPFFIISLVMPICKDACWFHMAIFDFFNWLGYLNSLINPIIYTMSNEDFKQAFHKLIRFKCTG
Protocol: as §1, §2

5-HT2 = biological target: T4, 5-HT2 (Rattus norvegicus, UniProt P14842); assay: 5-HT2 receptor binding (Leysen et al.); settings: 3H-ketanserine (title of cited method)
T4 construct: from tissue
T4 sequence (P14842 whole entry): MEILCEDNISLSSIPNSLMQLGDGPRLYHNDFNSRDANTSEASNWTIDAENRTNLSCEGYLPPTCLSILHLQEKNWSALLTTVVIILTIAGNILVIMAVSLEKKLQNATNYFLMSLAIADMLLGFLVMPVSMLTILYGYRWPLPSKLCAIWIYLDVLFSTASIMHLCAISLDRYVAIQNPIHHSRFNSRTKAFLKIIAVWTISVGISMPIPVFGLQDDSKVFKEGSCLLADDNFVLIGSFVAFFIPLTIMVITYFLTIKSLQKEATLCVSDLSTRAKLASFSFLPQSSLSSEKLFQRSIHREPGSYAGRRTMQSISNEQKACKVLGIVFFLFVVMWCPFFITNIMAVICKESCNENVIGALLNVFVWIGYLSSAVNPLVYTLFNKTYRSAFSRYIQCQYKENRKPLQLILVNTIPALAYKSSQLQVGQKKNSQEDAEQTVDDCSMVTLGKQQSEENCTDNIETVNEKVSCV
Protocol: as §1
Leysen J. E., Niemegeers C. J. E., Van Nueten J. M. and Laduron P.M. ^3 H-ketanserine (R 41468), a selective ^3 H ligand for serotonin2 receptor binding sites. Mol. Pharmacol., 21, 301-330, 1982.

α1-Adrenergic receptor = α1-Adrenergic receptor binding (Leslie Morrow and Creese); settings: rat brain (title of cited method)
Protocol: as §1
Leslie Morrow A. and Creese I. Characterization of α1-adrenergic receptor subtypes in rat brain: a reevaluation of ^3 H-WB4101 and ^3 H prazosin binding. Mol. Pharmacol. 29, 321-330, 1986.

D2-Dopaminergic receptor = biological target: T5, D2-Dopaminergic receptor (Canis lupus familiaris, UniProt Q9GJU1); assay: D2-Dopaminergic receptor binding (Nisnik et al.); settings: 3H-YM-09159-2 (title of cited method); read-out: IC50 D2
T5 construct: from tissue
T5 sequence (Q9GJU1 whole entry): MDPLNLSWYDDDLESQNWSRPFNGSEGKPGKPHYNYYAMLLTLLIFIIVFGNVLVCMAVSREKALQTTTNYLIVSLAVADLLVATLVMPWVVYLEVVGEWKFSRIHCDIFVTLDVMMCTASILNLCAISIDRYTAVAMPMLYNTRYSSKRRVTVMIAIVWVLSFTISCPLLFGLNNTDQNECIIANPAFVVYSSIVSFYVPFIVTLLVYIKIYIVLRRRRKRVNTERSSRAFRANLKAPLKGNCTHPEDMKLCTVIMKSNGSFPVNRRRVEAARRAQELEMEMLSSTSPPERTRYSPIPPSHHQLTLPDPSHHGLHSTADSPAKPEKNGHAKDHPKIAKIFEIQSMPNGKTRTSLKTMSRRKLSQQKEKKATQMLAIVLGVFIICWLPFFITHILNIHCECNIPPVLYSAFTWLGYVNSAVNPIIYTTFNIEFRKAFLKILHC
Protocol: as §1
Nisnik H. B., Grigoriadis D. E., Pri-Bar I., Buckman O. and Seeman P. Dopamine D2 receptors selectively labeled by a benzamide neuroleptic: ^3 H-YM-09159-2 Naunyn-Schmiedeberg's Arch. Pharmacol. 329, 333-343, 1985.

α2-Adrenergic receptor = biological target: T6, α2-Adrenergic receptor (Rattus norvegicus, UniProt P22909); assay: α2-Adrenergic receptor binding (Mallard et al.); settings: rat brain (title of cited method); read-out: IC50 α2
T6 construct: in the rat brain; from tissue; host or cells: rat brain
T6 sequence (P22909 1-465): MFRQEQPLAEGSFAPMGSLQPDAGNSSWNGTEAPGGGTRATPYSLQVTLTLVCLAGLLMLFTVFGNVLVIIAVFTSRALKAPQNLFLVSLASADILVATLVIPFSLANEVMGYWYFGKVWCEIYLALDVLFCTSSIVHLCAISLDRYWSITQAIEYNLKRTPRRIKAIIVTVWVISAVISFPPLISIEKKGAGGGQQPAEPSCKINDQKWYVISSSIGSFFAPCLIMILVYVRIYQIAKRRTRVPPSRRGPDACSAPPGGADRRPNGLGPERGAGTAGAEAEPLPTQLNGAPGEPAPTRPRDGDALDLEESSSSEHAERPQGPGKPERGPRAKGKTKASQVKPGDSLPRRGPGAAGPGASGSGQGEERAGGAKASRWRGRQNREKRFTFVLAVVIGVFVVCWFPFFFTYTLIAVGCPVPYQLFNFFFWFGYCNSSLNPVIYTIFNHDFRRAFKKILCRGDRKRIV
Protocol: as §1
Mallard N. J., Tyacke R., Hudson A. L. and Nutt D. S. Comparative binding studies of ^3 -idazoxan and ^3 -RX821002 in the rat brain. Brit. J. Pharmacol. 102, 221P, 1991.

Q: How did the IC50 (5-HT1A) turn out when `CN1CCN(C(=O)COc2ccc3[nH]cc(CCN)c3c2)CC1` [Example 7, 4-Methyl-1-(tryptamine-5-O-carboxymethyl)piperazide hydrochloride] was run?
A: Its IC50 is over 1000 nM.

Q: What about the IC50 (5-HT1C) of the same compound?
A: Its IC50 is over 1000 nM.

Q: What about the “Ratio 1A/1D” value (5-HT1D) of the same compound?
A: The value was over 1.4.

Q: What about the IC50 (5-HT1B) of the same compound?
A: Its IC50 is 355 nM.

Q: What about the IC50 (5-HT2) of the same compound?
A: Its IC50 is over 1000 nM.

Q: What about the IC50 (α1-Adrenergic receptor) of the same compound?
A: The IC50 was over 1000 nM.

Q: What about the IC50 (D2-Dopaminergic receptor) of the same compound?
A: The IC50 was over 1000 nM.

Q: What about the IC50 (α2-Adrenergic receptor) of the same compound?
A: The IC50 was over 1000 nM.
